“Also recorded” adds a separate entry of the source.

For one experiment, the system named is human asthma (severe). Description: Kudinoside A inhalation (atomization device) in two volunteers with severe asthma syndromes. Conditions: volunteer; for time to release of dyspnea: kudinoside A 20 mM inhaled for 15 seconds, albuterol as control. The format is in vivo. How it is done:
In order to test the effect of single substance in KE extract on asthma therapy, two volunteers with severe asthma syndromes were treated with kudinoside A (20 mM) with an atomization device.

Another experiment concerns the target T1, L-type calcium channel (Mus musculus, UniProt Q01815).
T1 construct: endogenous in cells; host or cells: primary airway smooth muscle cells
Description: Whole-cell patch clamp recording of VDCC currents in primary airway smooth muscle cells. The conditions noted are these: 50 μM; room temperature; pulses −60 to +50 mV from −80 mV. It counts as cell-based.

Experiment [1] has as its system airway smooth muscle (bronchial rings). Description: Relaxation of evoked isometric force of bronchial rings (wire myograph). The format is cell-based, mice. Conditions: for relaxation of evoked force of airway smooth muscle / bronchial rings: in vitro, concentration not given; for relaxation of MCh-evoked force at final concentration of 500 μM: 500 μM final, bronchi ring isometric assay; for IC50: MCh-evoked force, dose dependent. How it is done: Briefly, the entire respiratory tree was rapidly removed and immersed in Krebs-Henseleit buffer (118.1 mM NaCl, 4.7 mM KCl, 1.2 mM MgSO4, 2.5 mM CaCl2, 1.0 mM NaH2PO4, 25 mM NaHCO3 and 11.1 mM glucose, pH 7.4). Bronchial rings, 2 mm in length, were isolated from pulmonary bronchi using a dissection microscope. Then the bronchial segments were mounted in a small-vessel wire myograph chamber (Danish Myo Technology, Aarhus, Denmark) by threading on two steel wires (40 μm in diameter) secured to two supports. One support was attached to a force transducer for measurements of isometric force development, and the other was attached to a micrometer controlling ring circumference. The preparation was kept in the chamber, immersed in 5 ml of Krebs-Henseleit solution, bubbled with 5% CO2 and 95% O2 and maintained at 37° C. The initial isometric tension of bronchial ring was set to 0 mN prior to equilibration for 20 min. The bronchial ring was then stretched in order to keep the force at 5 mN followed by an additional equilibration for 20 min. The isometric forces produced by bronchial ring was recorded with a data acquisition and analysis program (Danish Myo Technology, Aarhus, Denmark).
The robust relaxation effect and low risk of toxicity of KE on airway smooth muscle indicates its promising prospects for development. To identify the active ingredients of KE, the KE was divided into three parts including EtOAc phase, n-BuOH phase and water phase using EtOAc and n-BuOH sequential extraction. Upon the airway smooth muscle rings reached a relative steady contraction state evoked by MCh, accumulated volume of these three phases was added to assess the relaxation capacity. […] On the other hand, 1 μL of EtOAc phase just relaxed the rings to 90%.
Their dose-responsive effect on relaxation of airway smooth muscle was measured. When the force evoked by acetylcholine reached a relatively steady state, kudinosides were added to the bath in cumulative concentrations (0.1 μM, 0.3 μM, 1 μM, 3 μM, 10 μM, 30 μM). […] When the concentration of kudinoside D increased to 10 μM, about 50% of the force was relaxed. Strikingly, upon treatment with 30 μM of kudinoside D, more than 80% of the force was relaxed (FIG. 5B). Similarly, 30 μM of kudinoside A also led to 80% inhibition of evoked force. Note that the relaxation effect of kudinosides was completely reversible, because the relaxed muscles restored response to MCh after washing off.

In experiment [2] the test system is asthmatic airway constriction in acute asthma mouse model. The experiment in a line: Airway resistance (Rrs, FlexiVent) in OVA-induced, methacholine-challenged asthma mice. It counts as in vivo, C57BL/6 mice. Conditions: for inhibition of airway constriction in vivo: mouse. Here is the method: Asthma mice were established as reported previously. Briefly, six to eight-week-old female C57BL/6 mice were carried out by intraperitoneal injection of 100 μg ovalbumin and 4 mg Imject Alum (ThermoFisher Scientific) in total volume of 0.2 mL on days 0 and 14. These mice were then challenged with 1.5%-2% aerosolized ovalbumin for 1 h on days 24, 25 and 26. The efficacy of drugs was evaluated by measuring airway resistance in these mice 24 h after the last challenge.
(§1) The airway resistance was measured through an invasive method as described in previous reports. In brief, the mice were anesthetized with 240 mg/kg Avertin and the trachea was cannulated with an 18-gauge metal needle. Mechanical ventilation (FlexiVent; SCIREQ Inc., Montreal, Canada) was applied at a frequency of 150 breaths per minute, a tidal volume of 10 ml/kg, and positive end-expiratory pressure of 2.5 cm H2O. Prior to methacholine challenge, deep inflation was applied followed by administration of aerosolized PBS to obtain stabilization of airway resistance (Rrs, cmH2O·s/mL). The Rrs after PBS was considered to be the baseline. Then mice were challenged with sequential concentrations of methacholine with a dose of 2.0, 4.0, 8.0, 16, 32 and 64 mg/mL by an ultrasonic nebulizer until reaching bronchoconstrictive phase that was four to five folds greater than baseline. Three minutes after the last dose of methacholine inhalation, the reagents were delivered by the same ultrasonic nebulizer. The Rrs measurements were performed every 30 s throughout the experiments. The negative control for these studies was PBS, because all the solvents for reagents used here were PBS. As a positive control, albuterol (3 μg; Sigma), the most widely used β-agonist as an effective bronchodilator for asthma therapy, was used.
as §1, with “Acute asthma model mice were established as reported previously. Briefly, six to eight-week-old female C57BL/6 mice were carried out by intraperitoneal injection of 100 μg ovalbumin and 4 mg Imject Alum (ThermoFisher Scientific) in total volume of 0.2 mL on days 0 and 14. These mice were then challenged with 1.5%-2% aerosolized ovalbumin for 1 h on days 24, 25 and 26. The efficacy of drugs by measuring airway resistance in these mice 24 h was evaluated after the last challenge. The airway” for “The airway”

T1 sequence (Q01815 whole entry): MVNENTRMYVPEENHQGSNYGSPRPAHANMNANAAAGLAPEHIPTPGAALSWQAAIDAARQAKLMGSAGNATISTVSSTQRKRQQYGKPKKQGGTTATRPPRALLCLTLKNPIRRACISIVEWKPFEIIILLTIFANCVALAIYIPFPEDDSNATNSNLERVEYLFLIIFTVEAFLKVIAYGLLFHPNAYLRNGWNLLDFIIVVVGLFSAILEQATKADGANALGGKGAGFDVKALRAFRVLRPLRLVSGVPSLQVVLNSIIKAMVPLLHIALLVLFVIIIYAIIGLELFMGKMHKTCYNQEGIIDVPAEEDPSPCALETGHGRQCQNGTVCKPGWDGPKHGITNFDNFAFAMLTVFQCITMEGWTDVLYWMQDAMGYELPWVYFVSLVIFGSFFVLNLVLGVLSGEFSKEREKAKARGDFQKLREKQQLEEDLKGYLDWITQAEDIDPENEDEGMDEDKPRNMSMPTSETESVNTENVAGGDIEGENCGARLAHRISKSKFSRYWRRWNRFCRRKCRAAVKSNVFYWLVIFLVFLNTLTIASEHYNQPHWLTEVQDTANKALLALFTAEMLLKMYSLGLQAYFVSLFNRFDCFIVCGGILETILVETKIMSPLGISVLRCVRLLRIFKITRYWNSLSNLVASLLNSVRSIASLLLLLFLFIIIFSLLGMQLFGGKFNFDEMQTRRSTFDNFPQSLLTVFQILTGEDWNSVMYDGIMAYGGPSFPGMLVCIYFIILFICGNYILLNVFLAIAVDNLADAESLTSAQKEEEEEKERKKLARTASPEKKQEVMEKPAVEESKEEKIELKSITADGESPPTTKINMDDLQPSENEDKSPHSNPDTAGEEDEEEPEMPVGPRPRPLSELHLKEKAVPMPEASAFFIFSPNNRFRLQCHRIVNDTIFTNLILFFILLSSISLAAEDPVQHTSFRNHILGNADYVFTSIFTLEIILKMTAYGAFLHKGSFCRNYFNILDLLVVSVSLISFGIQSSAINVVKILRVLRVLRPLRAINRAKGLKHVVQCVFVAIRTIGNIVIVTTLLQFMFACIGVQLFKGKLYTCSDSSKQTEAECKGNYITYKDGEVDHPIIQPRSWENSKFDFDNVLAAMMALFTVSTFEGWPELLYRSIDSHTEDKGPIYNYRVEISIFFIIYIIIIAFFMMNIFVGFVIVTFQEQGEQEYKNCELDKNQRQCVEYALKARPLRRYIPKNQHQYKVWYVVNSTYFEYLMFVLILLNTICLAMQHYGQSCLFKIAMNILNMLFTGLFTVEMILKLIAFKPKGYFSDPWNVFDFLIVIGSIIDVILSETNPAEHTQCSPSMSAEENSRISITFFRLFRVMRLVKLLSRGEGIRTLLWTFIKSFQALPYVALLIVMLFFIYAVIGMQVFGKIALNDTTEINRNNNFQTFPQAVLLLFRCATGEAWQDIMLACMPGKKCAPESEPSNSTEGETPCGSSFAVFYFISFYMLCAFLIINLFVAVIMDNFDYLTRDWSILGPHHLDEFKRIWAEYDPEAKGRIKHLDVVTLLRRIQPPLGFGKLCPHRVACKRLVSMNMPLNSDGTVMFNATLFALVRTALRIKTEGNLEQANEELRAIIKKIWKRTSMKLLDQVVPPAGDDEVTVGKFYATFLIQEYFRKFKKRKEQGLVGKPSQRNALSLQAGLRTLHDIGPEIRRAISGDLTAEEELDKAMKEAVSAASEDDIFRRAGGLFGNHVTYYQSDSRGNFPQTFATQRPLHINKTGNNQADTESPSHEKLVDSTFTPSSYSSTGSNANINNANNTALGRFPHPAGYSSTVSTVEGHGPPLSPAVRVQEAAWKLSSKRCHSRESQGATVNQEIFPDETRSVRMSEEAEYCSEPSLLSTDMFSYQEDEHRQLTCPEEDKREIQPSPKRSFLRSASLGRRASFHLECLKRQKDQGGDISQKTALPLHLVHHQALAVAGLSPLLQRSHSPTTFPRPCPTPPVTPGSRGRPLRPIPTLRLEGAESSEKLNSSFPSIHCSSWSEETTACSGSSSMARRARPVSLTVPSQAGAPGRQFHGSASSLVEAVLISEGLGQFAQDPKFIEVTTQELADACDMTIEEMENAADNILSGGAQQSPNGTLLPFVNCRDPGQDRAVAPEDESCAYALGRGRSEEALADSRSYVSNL
T1 sequence (O08532 25-1103 partner): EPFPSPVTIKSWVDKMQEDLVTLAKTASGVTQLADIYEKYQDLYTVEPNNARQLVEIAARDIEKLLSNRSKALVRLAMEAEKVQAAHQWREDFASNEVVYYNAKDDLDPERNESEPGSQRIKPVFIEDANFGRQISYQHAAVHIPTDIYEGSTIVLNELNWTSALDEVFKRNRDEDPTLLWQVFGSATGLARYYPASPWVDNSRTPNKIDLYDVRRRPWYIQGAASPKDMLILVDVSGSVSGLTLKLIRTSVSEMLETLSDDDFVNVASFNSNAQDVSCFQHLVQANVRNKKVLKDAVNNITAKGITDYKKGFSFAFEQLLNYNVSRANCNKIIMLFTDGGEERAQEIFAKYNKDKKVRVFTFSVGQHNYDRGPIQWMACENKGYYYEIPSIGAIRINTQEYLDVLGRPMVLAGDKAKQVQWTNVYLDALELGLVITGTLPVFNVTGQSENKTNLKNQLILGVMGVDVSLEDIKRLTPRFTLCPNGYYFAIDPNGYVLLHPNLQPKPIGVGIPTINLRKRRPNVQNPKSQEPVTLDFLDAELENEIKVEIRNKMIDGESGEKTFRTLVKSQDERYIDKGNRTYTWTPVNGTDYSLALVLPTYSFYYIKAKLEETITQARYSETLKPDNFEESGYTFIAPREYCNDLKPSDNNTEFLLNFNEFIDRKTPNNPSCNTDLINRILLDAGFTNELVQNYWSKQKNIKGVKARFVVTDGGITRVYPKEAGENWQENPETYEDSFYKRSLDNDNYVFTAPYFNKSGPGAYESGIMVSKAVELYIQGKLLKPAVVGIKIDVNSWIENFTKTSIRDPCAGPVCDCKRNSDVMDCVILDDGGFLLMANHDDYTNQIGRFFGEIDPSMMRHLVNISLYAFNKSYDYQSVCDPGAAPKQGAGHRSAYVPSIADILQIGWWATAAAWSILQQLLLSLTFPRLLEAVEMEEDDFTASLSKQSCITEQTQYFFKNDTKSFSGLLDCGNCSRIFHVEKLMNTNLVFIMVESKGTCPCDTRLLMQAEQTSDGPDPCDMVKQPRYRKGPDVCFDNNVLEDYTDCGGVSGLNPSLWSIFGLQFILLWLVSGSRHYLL
T1 sequence (P54285 whole entry partner): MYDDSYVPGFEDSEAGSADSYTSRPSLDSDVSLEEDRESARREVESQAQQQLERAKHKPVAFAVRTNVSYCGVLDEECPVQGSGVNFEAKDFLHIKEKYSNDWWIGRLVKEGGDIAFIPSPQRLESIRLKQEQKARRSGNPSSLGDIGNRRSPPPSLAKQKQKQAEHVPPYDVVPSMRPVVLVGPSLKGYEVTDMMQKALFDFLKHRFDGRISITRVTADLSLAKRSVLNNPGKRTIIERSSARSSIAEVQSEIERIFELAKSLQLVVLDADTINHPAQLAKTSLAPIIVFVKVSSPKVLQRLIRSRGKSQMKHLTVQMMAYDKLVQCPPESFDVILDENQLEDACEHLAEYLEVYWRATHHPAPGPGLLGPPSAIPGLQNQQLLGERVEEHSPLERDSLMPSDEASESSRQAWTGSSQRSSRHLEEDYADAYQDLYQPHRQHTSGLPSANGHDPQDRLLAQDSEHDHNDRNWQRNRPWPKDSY
Description for L-type calcium channel: So to identify the target of certain kudinosides, patch-clamp studies were used to examine the modulation of L-type calcium channel currents after Kudinosides treatment. In patch-clamp studies, whole-cell patch clamp recording of VDCC currents were performed at room temperature, in response to voltage pulses (−60 to +50 mV from a holding potential of −80 mV, 200 ms).

With Kudinoside A, in the experiment with human asthma (severe), the “duration of release of dyspnea” value was “maintained overnight” and the “time to release of dyspnea” value amounted to 5 min. Moreover, the “PEF value after inhalation” value in the experiment with human asthma (severe) (20 mM, 15 seconds inhalation, increased from 100) amounted to 320. Also, at L-type calcium channel, the “decrease of current generated by L-type calcium channel compared to vehicle” value was “about 60%”. Further, in experiment [1] (force evoked by acetylcholine, cumulative concentrations, 30 μM), the “force relaxed / inhibition of evoked force at 30 μM” value is 80%. Moreover, the “relaxation of evoked force of airway smooth muscle / bronchial rings” value in experiment [1] is reported as “significantly relaxed bronchial rings in a dose-dependent manner”.
With Kudinoside C, in experiment [1], the “relaxation of evoked force of airway smooth muscle / bronchial rings” value is reported as “strong relaxation effect on airway smooth muscles”. Besides, the “inhibition of airway constriction in vivo” value in experiment [2] is “significant inhibition of airway constriction”.
With `COC(=O)[C@@]1(C)CC[C@]2(C(=O)O)CC[C@]3(C)C(=CC[C@@H]4[C@@]5(C)C[C@H](O)[C@H](O)[C@@](C)(CO)[C@@H]5CC[C@]43C)[C@@H]2C1` [Phytolaccagenin, reference compound], in experiment [1], the “relaxation of MCh-evoked force at final concentration of 500 μM” value (from here on “relaxation of MCh-evoked force”) is “about 50%”.
As for `C[C@@H]1O[C@@H](O[C@H]2[C@H](O[C@H]3[C@H](O[C@H]4CC[C@]5(C)[C@H]6CC=C7[C@@H]8CC(C)(C)CC[C@]8(C(=O)O)CC[C@@]7(C)[C@]6(C)CC[C@H]5C4(C)C)OC[C@H](O)[C@@H]3O)O[C@H](CO)[C@@H](O)[C@@H]2O)[C@H](O)[C@H](O)[C@H]1O` [Raddeanin A, reference compound], the “relaxation of MCh-evoked force” value in experiment [1] is on record as “about 50%”.
As usually defined, the IC50 is the concentration that inhibits the measured activity by half. Consider `C[C@@H]1O[C@@H](O[C@@H]2[C@H](O)[C@@H](O)[C@H](O[C@H]3CC[C@@]4(C)C(CC[C@]5(C)C4C=C[C@]46OC[C@@]7(CCC(C)(C)CC74)[C@@H](O)C[C@]65C)C3(C)C)O[C@@H]2CO[C@@H]2O[C@H](CO)[C@@H](O)[C@H](O)[C@H]2O)[C@H](O)[C@H](O)[C@H]1O` (stereo partly drawn) [Saikosaponin C, reference compound], for which, in experiment [1], the “relaxation of MCh-evoked force” value is “about 50%” and the IC50 was more than 150 µM.
As to Kudinoside H, the “relaxation of evoked force of airway smooth muscle / bronchial rings” value in experiment [1] was “fails to show effective bronchial ring relaxation; also recorded: little effect on relaxation in vitro”. Further, in experiment [2], the “inhibition of airway constriction in vivo” value was “little inhibition activity of airway constriction in vivo”.
For `CC1(C)[C@@H](O)CC[C@]2(C)[C@H]3C(=O)C=C4[C@@H]5C[C@@](C)(C(=O)O)CC[C@]5(C)CC[C@@]4(C)[C@]3(C)CC[C@@H]12` [Glycyrrhetinic acid, reference compound], in experiment [1], the “relaxation of MCh-evoked force” value is on record as “about 50%”. The IC50 in experiment [1] (Mus musculus) came out at 84.3 µM.
For the compound `CC(C)(C)NCC(O)c1ccc(O)c(CO)c1` (stereo not drawn) [albuterol, reference compound], in the experiment on human asthma (severe), the “duration of release of dyspnea” value was “could not be maintained overnight” and the “time to release of dyspnea” value was not above 3 min. Besides, in experiment [2] (3 μg inhaled, 1 minute, printed as 'led to a reduction of'), the “reduction of airway resistance at 1 minute after inhalation, 3 μg (positive control)” value was 55.59±13.07%. Also, the “effect on asthmatic airway resistance” value in experiment [2] (n-BuOH phase 30 μg, albuterol 3 μg, inhaled after MCh challenge) is recorded as “significant reduction of airway resistance”.
For the compound `C[C@@H]1O[C@@H](O[C@H]2[C@H](O[C@H]3[C@H](O[C@H]4CC[C@@]5(C)[C@@H](CC[C@]6(C)[C@@H]5CC=C5[C@@H]7CC(C)(C)C[C@@H](O)[C@]7(C)CC[C@]56C)[C@@]4(C)CO)O[C@H](C(=O)O)[C@@H](O)[C@@H]3O)O[C@H](CO)[C@H](O)[C@@H]2O)[C@H](O)[C@H](O)[C@H]1O` [Soyasaponin Bb, reference compound], the “relaxation of MCh-evoked force” value in experiment [1] is reported as “about 50%”.

These data come from US10786521B2, “Methods and compositions for treatment of COPD diseases” (Shanghai KE Pharmaceutical Co., LTD, priority 2014, dated 2020).
